Key:
[1] = molecular target: T1, cytoplasmic kinase domain of human Flt-3 (Homo sapiens, UniProt P36888); experiment: Flt3 kinase inhibition, GST-Flt-3 filter binding assay; type: biochemical; settings: % inhibition at 10 μM
T1 construct: amino acids 563-993 of the cytoplasmic kinase domain of human Flt-3; made in house; host or cells: Sf9 insect cells (baculovirus, donor vector pFbacG01)
T1 sequence (P36888 563-993): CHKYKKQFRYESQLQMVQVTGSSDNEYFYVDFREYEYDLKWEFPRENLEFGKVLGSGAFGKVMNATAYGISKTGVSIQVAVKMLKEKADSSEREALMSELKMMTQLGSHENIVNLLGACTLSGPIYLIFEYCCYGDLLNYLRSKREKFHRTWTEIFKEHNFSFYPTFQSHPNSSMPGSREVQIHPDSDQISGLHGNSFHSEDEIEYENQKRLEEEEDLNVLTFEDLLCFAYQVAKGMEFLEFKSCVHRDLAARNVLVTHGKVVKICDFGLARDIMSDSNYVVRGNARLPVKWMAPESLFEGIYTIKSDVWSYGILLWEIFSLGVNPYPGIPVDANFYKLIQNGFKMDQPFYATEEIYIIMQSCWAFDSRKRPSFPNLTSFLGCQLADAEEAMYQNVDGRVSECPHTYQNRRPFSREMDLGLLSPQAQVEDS
Description: Flt3 kinase inhibition is determined as follows: The baculovirus donor vector pFbacG01 (GIBCO) is used to generate a recombinant baculovirus expressing the amino acid region amino acids 563-993 of the cytoplasmic kinase domain of human Flt-3. The coding sequence for the cytoplasmic domain of Flt-3 is amplified by PCR from human c-DNA libraries (Clontech). The amplified DNA fragments and the pFbacG01 vector are made compatible for ligation by digestion with BamH1 and HindIII. Ligation of these DNA fragments results in the baculovirus donor plasmid Flt-3(1.1). The production of the viruses, the expression of proteins in Sf9 cells and the purification of the GST-fused proteins are performed as follows:
Production of virus: Transfer vector (pFbacG01-Flt-3) containing the Flt-3 kinase domain is transfected into the DH10Bac cell line (GIBCO) and the transfected cells are plated on selective agar plates. Colonies without insertion of the fusion sequence into the viral genome (carried by the bacteria) are blue. Single white colonies are picked and viral DNA (bacmid) is isolated from the bacteria by standard plasmid purification procedures. Sf9 or Sf21 cells (American Type Culture Collection) are then transfected in flasks with the viral DNA using Cellfectin reagent. Determination of small scale protein expression in Sf9 cells: Virus containing media is collected from the transfected cell culture and used for infection to increase its titre. Virus containing media obtained after two rounds of infection is used for large-scale protein expression. For large-scale protein expression 100 cm^2 round tissue culture plates are seeded with 5×10^7 cells/plate and infected with 1 mL of virus-containing media (approx. 5 MOIs). After 3 days the cells are scraped off the plate and centrifuged at 500 rpm for 5 min. Cell pellets from 10-20, 100 cm^2 plates, are resuspended in 50 mL of ice-cold lysis buffer (25 mMTris-HCl, pH 7.5, 2 mM EDTA, 1% NP-40, 1 mM DTT, 1 mM PMSF). The cells are stirred on ice for 15 min and then centrifuged at 5000 rpms for 20 min. Purification of GST-tagged proteins: The centrifuged cell lysate is loaded onto a 2 mL glutathione-sepharose column (Pharmacia) and washed three times with 10 mL of 25 mM Tris-HCl, pH 7.5, 2 mM EDTA, 1 mM DTT, 200 mM NaCl. The GST-tagged protein is then eluted by 10 applications (1 mL each) of 25 mM Tris-HCl, pH 7.5, 10 mM reduced-glutathione, 100 mM NaCl, 1 mM DTT, 10% Glycerol and stored at −70° C. Measurement of enzyme activity: Tyrosine protein kinase assays with purified GST-Flt-3 are carried out in a final volume of 30 μL containing 200-1800 ng of enzyme protein (depending on the specific activity), 20 mM Tris-HCl, pH 7.6, 3 mM MnCl2, 3 mM MgCl2, 1 mM DTT, 10 μM Na3VO4, 3 μg/mL poly(Glu,Tyr) 4:1, 1% DMSO, 8.0 μM ATP and 0.1 μCi [γ^33 P] ATP). The activity is assayed in the presence or absence of inhibitors, by measuring the incorporation of ^33P from [γ^33P] ATP into the poly(Glu,Tyr) substrate. The assay (30 μL) is carried out in 96-well plates at ambient temperature for 20 min under conditions described below and terminated by the addition of 20 μL of 125 mM EDTA. Subsequently, 40 μL of the reaction mixture is transferred onto Immobilon-PVDF membrane (Millipore, Bedford, Mass., USA) previously soaked for 5 min with methanol, rinsed with water, then soaked for 5 min with 0.5% H3PO4 and mounted on vacuum manifold with disconnected vacuum source. After spotting all samples, vacuum is connected and each well rinsed with 200 μL 0.5% H3PO4. Membranes are removed and washed 4× on a shaker with 1.0% H3PO4, once with ethanol. Membranes are counted after drying at ambient temperature, mounting in Packard TopCount 96-well frame, and addition of 10 μL/well of Microscint™ (Packard). IC50 values are calculated by linear regression analysis of the percentage inhibition of each compound in duplicate, at four concentrations (usually 0.01, 0.1,1 and 10 μM). […]

SMILES | Flt3 (% at 10 μM) [1] | melting point
Cc1ccc(NC(=O)Nc2ccc(Oc3ccncc3)cc2)cc1 [Example 4] | 98% | –
CCc1ccc(NC(=O)N(C)c2ccc(Oc3ccncc3)cc2)cc1 [Example 5] | 64% | –
CN(C(=O)Nc1cccc(C(F)(F)F)c1)c1ccc(Oc2ccncc2)cc1 [Example 6] | 87% | –
CCCc1ccc(NC(=O)N(C)c2ccc(Oc3ccncc3)cc2)cc1 [Example 7] | 67% | –
Cc1ccc(NC(=O)N(C)c2ccc(Oc3ccncc3)cc2)cc1 [Example 8] | 57% | –
O=C(Nc1ccc(Oc2ccncc2)cc1)Nc1ccc(Br)c(C(F)(F)F)c1 [Example 9] | 90% | –
O=C(Nc1ccc(Oc2ccncc2)cc1)Nc1ccc(OCC(F)(F)F)c(C(F)(F)F)c1 [Example 10] | 100% | –
COc1cc(NC(=O)Nc2ccc(Oc3ccncc3)cc2)cc(C(F)(F)F)c1 [Example 11] | 100% | –
CCCc1ccc(NC(=O)Nc2ccc(Cc3ccncc3)cc2)cc1 [Example 12] | 92% | –
CCc1ccc(NC(=O)Nc2ccc(Cc3ccncc3)cc2)cc1 [Example 13] | 95% | –
Cc1ccc(NC(=O)Nc2ccc(Cc3ccncc3)cc2)cc1 [Example 14] | 89% | –
O=C(Nc1ccc(Cc2ccncc2)cc1)Nc1cccc(C(F)(F)F)c1 [Example 15] | 96% | –
CCc1ccc(NC(=O)Cc2ccc(Oc3ccncc3)cc2)cc1 [Example 16, N-(4-pyridin-4-yl-oxy-phenyl)acetyl-(4-ethyl-phenyl)-amide] | 94% | –
Cc1ccc(NC(=O)Cc2ccc(Oc3ccncc3)cc2)cc1 [Example 17] | 92% | –
CCCc1ccc(NC(=O)Cc2ccc(Oc3ccncc3)cc2)cc1 [Example 18] | 88% | –
O=C(Nc1cccc(C(F)(F)F)c1)N1CCc2cc(Oc3ccncc3)ccc21 [Example 19, 5(4-pyridyloxy)-N-(3-trifluoromethyl-phenyl)amino-carbonyl-2,3-dihydroindole] | 63% | 171 to 172.5 °C
O=C(Nc1cccc(C(F)(F)F)c1)N1CCCc2cc(Oc3ccncc3)ccc21 [Example 20] | 69% | 185.5 to 188 °C
O=C(Nc1ccc(Oc2cc(Cl)ncn2)cc1)Nc1cccc(C(F)(F)F)c1 [Example 21, N-(4-(6-Chloropyrimidin-4-yl)-oxyphenyl)-N′-(3-trifluoromethylphenyl)-urea] | 94% | 187.4 to 189.7 °C
Cc1cc(Oc2ccc(NC(=O)Nc3cccc(C(F)(F)F)c3)cc2)ccn1 [Example 30] | 100% | –
O=C(Nc1ccc(Oc2cc(Nc3ccc(O)cc3)ncn2)cc1)Nc1ccc(OCC(F)(F)F)c(C(F)(F)F)c1 [Example 32] | 100% | –

Reference: patent US7652022B2, “Diaryl urea derivatives useful for the treatment of protein kinase dependent diseases” (Novartis AG, priority 2002, dated 2010)
